According to US6180637A, “1,2,5-trisubstituted 1,2-dihydroindazol-3-ones having anti-asthmatic, anti-allergic, anti-inflammatory, immunomodulating and neuroprotective action, process for their preparation and their use as medicaments” (Arzneimittelwerk Dresden GmbH, priority 1998, dated 2001):

Key:
human cyclophilin B = human cyclophilin B (Homo sapiens, UniProt P23284); experiment: Peptidylprolyl isomerase (PPIase) activity inhibition assay; assay type: biochemical; settings: 10 μM compound; 10 nmol Cyp B, preincubated at 4° C. for 15 minutes; test peptide Suc-Ala-Ala-Pro-Phe-Nan
Experimental: For the initial screening (10 μmol/l), the inhibition of the human cyclophilin B in the PPIase test is determined.
Assay for the determination of the peptidylprolyl isomerase (PPIase) activity and inhibition
The PPIase activity is tested according to a globally customary enzyme test: G. Fischer, H. Bang, C. Mech, Biomed. Biochim. Acta 43 1101-1111; G. Fischer, H. Bang, A. Schellenberger, Biochim. Biophys. Acta 791 (1984), 87-97; D. H. Rich et al., J. Med. Chem. 38 (1995), 4164-4170.
The compounds of the general formula I according to the invention are preincubated at 4° C. for 15 minutes together with 10 nmol of Cyp B. The enzyme reaction is started using the test peptide Suc-Ala-Ala-Pro-Phe-Nan after addition of chymotrypsin and HEPES buffer. The extinction change at 390 nm is then monitored and evaluated. The photometrically determined extinction change results from two sub-reactions: a) the rapid chymotryptic cleavage of the trans-peptide; b) the non-enzymatic cis-trans isomerization, which is catalysed by cyclophilins.

[1] = tested on: pulmonary eosinophil infiltration; experiment: Inhibition of late-phase eosinophilia 24 h after inhalational ovalbumin challenge in actively sensitized guinea-pigs; assay type: in vivo, guinea-pig; settings: 2 × 30 mg/kg i.p. -2h/+4h, BAL 24 h after OVA challenge
Experimental: Inhibition of late-phase eosinophilia 24 h after inhalational ovalbumin challenge in actively sensitized guinea-pigs
The inhibition of pulmonary eosinophil infiltration by the substances is tested in an in vivo test on male Dunkin-Hartley guinea-pigs (200-250 g) sensitized against ovalbumin (OVA). The sensitization is carried out by means of two intraperitoneal injections of a suspension of 20 μg of OVA together with 20 mg of aluminium hydroxide as an adjuvant in 0.5 ml of physiological saline solution per animal on two successive days. 14 days after the second injection, the animals are pretreated with mepyramine maleate (10 mg/kg i.p.) in order to protect them from anaphylactic death. 30 minutes later, the animals are exposed for 30 sec in a plastic box to an OVA aerosol (0.5 mg/ml) which is generated by a nebulizer driven by compressed air (19.6 kPa) (allergen challenge). Control animals are nebulized with physiological saline solution. […] The eosinophils are stained using the Becton-Dickinson test kit (N. 5877) for eosinophils and counted in a Neubauer chamber. […]
The percentage inhibition of the eosinophilia of the test group treated with substance is calculated according to the following formula: […]

human cyclophilin B, sequence (P23284 34-216): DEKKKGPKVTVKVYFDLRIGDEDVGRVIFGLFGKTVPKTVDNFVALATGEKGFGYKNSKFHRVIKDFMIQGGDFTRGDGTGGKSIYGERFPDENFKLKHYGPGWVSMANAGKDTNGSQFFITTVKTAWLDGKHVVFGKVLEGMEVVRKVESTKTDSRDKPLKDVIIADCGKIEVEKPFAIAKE

inhibition at 10 µM (human cyclophilin B) [%] | Structure (SMILES) | Inhibition [%] of eosinophilia ([1]; OVA-sensitized guinea-pigs) [%] | Eosinophils million/animal x ± s, B ([1]; group B (test group treated with substance)) [million/animal]
70 | COc1ccc(S(=O)(=O)n2c3ccc(OC)cc3c(=O)n2Cc2cc([N+](=O)[O-])ccc2O)cc1 [Example 1, 2-(2-Hydroxy-5-nitrobenzyl)-5-methoxy-1-(4-methoxybenzenesulphonyl)-1,2-dihydroindazol-3-one] | 97 | 0.51 ± 0.25
50 | COc1ccc2c(c1)c(=O)n(Cc1cc([N+](=O)[O-])ccc1O)n2S(=O)(=O)c1ccc(C)cc1 [Example 2, 2-(2-hydroxy-5-nitrobenzyl)-5-methoxy-1-(toluene-4-sulphonyl)-1,2-dihydroindazol-3-one] |  | 
93 | COc1ccc2c(c1)c(=O)n(Cc1cc([N+](=O)[O-])ccc1O)n2S(=O)(=O)c1ccc(OC(F)(F)F)cc1 [Example 3, 2-(2-hydroxy-5-nitrobenzyl)-5-methoxy-1-(4-trifluoro-methoxybenzenesulphonyl)-1,2-dihydroindazol-3-one] |  | 
90 | COc1ccc2c(c1)c(=O)n(Cc1cc([N+](=O)[O-])ccc1O)n2S(=O)(=O)c1ccc(Cl)cc1 [Example 4, 2-(2-hydroxy-5-nitrobenzyl)-5-methoxy-1-(4-chloro-benzenesulphonyl)-1,2-dihydroindazol-3-one] |  | 
67 | COc1ccc2c(c1)c(=O)n(Cc1cc([N+](=O)[O-])ccc1O)n2S(=O)(=O)c1ccc(F)cc1 [Example 5, 1-(4-fluorobenzenesulphonyl)-2-(2-hydroxy-5-nitrobenzyl)-5-methoxy-1,2-dihydroindazol-3-one] |  | 
98 | CSc1ccc2c(c1)c(=O)n(Cc1cc([N+](=O)[O-])ccc1O)n2Cc1ccc(Cl)c(Cl)c1 [Example 26, 1-(3,4-Dichlorobenzyl)-2-(2-hydroxy-5-nitrobenzyl)-5-methylthio-1,2-dihydroindazol-3-one hydrate] |  | 
